From patent US20120164729A1, “COMPOSITION FOR CULTURING PLURIPOTENT STEM CELLS AND USE THEREOF” (NATIONAL UNIVERSITY CORPORATION CHIBA UNIVERSITY, priority 2010, published 2012) come the findings set out here.

Common to all, as to format: cell-based, human
Assay [1] relates to 201B7 cells. The assay is described as follows: Alkaline phosphatase staining of subcultured cells at the 12th passage. As to conditions: activin A 10 ng/mL, CHIR99021 2 μM, LIF 1000 U/mL. An excerpt:
Among the cells that had been subcultured as described above, those subcultured in the presence of activin A alone (A), a combination of activin A+CHIR99021 (AC), and a combination of activin A+CHIR99021+LIF (ACL) were subjected to alkaline phosphatase staining as described above, at the 12th passage. The results are shown in the photographs on the left side of FIG. 5.

Assay [2] has as its system 201B7 cells. In words: Immunostaining of subcultured cells for pluripotency markers (Oct3/4, Nanog, SSEA4, TRA-1-60). The following applies: cells subcultured from the 11th passage. On the procedure:
Each of the cells at the 11th passage was seeded on a Matrigel-coated 4-well slide glass, and subculture was continued. When the cells reached 70% confluency, the medium was removed, and the cells were washed once with PBS. The cells were immobilized with 4% para-formaldehyde, and then were washed three times with PBS. Meanwhile, in the case of staining for Oct3/4 and Nanog, a permeabilization solution (0.2% Triton X-100 (PBS solution)) was added to the cells, and the cells were left to stand for 15 minutes at room temperature. Subsequently, the cells were washed three times for 5 minutes with a washing buffer (2% FBS (PBS solution)).
Thereafter, primary antibodies diluted with the washing buffer were added to the cells, and the cells were left to stand overnight at 4° C. Meanwhile, the types of the various primary antibodies and the dilution ratios are as follows.
Mouse anti-Oct3/4 antibody (BD Transduction Laboratories): 200 times
Rabbit anti-Nanog antibody (manufactured by ReproCELL Inc.): 1000 times
Mouse anti-SSEA4 antibody (manufactured by Chemicon Corporation): 200 times
Mouse anti-TRA-1-60 antibody (manufactured by Chemicon Corporation): 200 times
Subsequently, the cells were […] three times for 5 minutes with the washing buffer, and then secondary antibodies diluted with the washing buffer were added. The cells were left to stand for one hour at 4° C. […]

Assay [3] concerns 201B7 cells. The assay is described as follows: Effect of activin A on differentiation of embryoid bodies formed by hanging drop culture (microscopic observation). As to conditions: activin A 100 ng/mL instead of bFGF; at least 14 days after the initiation of culture; Matrigel-coated plate. As for the experimental part:
Cell culture was carried out using cells of strain HPS0001 201B7, which are human induced pluripotent stem cells (iPS cells), obtained from RIKEN BioResource Center, Cell Bank. The cell culture was carried out in a humidified chamber at 37° C. under the conditions of 5% CO2 using, as a medium, Dulbecco […] (DMEM)-F12 medium (manufactured by Sigma-Aldrich Japan K.K.) supplemented with a knockout serum replacement additive (KSR; manufactured by Life Technologies Japan, Ltd. (final concentration 20%), a 1/100 dilution of 100-times concentrated […] (manufactured by Life Technologies Japan, Ltd.), 2 mM L-glutamine (manufactured by Life Technologies Japan, Ltd.), 0.1 mM 2-mercaptoethanol (manufactured by Sigma-Aldrich Japan K.K.), and 5 ng/mL of basic fibroblast growth factor (bFGF; manufactured by Wako Pure Chemical industries, Ltd.). At this time, 201B7 cell line was proliferated by co-culturing 201B7 cell line on cells of strain SNL76/7, which are mouse-derived fetal fibroblasts proliferated on a culture plate (manufactured by AGC Techno Glass Corp.) treated with mitomycin C (manufactured by Sigma-Aldrich Japan K.K.) and coated with gelatin (manufactured by Sigma-Aldrich Japan K.K.), and the 201B7 cell line was maintained. Also, at the time of subculturing, cells were collected using a CTK solution. […]

Assay [4] concerns 201B7 cells. In words: Confirmation of maintenance of undifferentiation potency by alkaline phosphatase (ALP) staining and phase contrast morphology. An excerpt:
It was confirmed by alkaline phosphatase (ALP) staining that the 201B7 cells cultured in the presence of activin A maintained undifferentiation potency. Meanwhile, the photographs on the left side of FIG. 3 are images observed with a phase contrast microscope, and the photographs on the right side are images observed after ALP staining.

Assay [5] deals with 201B7 cells. In words: Evaluation of cell proliferative capacity by MTS assay. As to conditions: FIG. 2. On the procedure:
The proliferative capacity of 201B7 cells that had been cultured in the presence of activin A was evaluated by an MTS assay.
(Tetrazolium dyes change colour on reduction, which living cells bring about.)

“activin A: homodimer of the β chain of inhibin A (βAβA), TGF-β superfamily protein; manufactured by R & D Systems, Inc.”: the ALP staining entry in assay [1], in assay [4] (activin A 1 ng/mL), in assay [4] (activin A 10 ng/mL), in assay [4] (activin A 30 ng/mL) and in assay [4] (activin A 100 ng/mL) was “positive” throughout. The “staining of nuclei by anti-Oct3/4 antibody” value in assay [2] is recorded as “positively stained”. For the same substance, the “morphological condition of embryoid bodies” value in assay [3] is “maintained a morphologically undifferentiated condition”. Also, in assay [4] (ALP staining and morphology), the “concentration of added activin A at which iPS cells can maintain undifferentiation potency” value was in the range of 0.01 to 0.1 µg/mL. The cell morphology result is listed as “slightly similar to fibroblasts” in assay [4] (activin A 1 ng/mL), “maintained an undifferentiated condition” in assay [4] (activin A 10 ng/mL), “maintained an undifferentiated condition” in assay [4] (activin A 30 ng/mL) and “maintained an undifferentiated condition” in assay [4] (activin A 100 ng/mL). Also, in assay [5], the “concentration of added activin at which 201B7 cells had proliferative capacity” value fell in the range of 3 to 30 ng/mL.
